Reference: patent US12653191B2, “Active compound combinations” (Bayer Aktiengesellschaft, priority 2020, dated 2026)
“And” between values parts separate entries of the source, which are not always exact repeats. Equal entries are not always repeated. Where two headings read alike, the source gives them in different places.

Tests used:
Alternaria alternate = assay: in vitro-Test with fungal microorganisms, Method A (tables A1-A12); format: cell-based, Alternaria alternata; details: applied alone
Method in brief: (§1)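 Broth microdilution-type growth test in potato dextrose medium with spores or mycelium of the fungus, compound pre-dried from methanol/emulsifier. Efficacy from 620 nm extinction after 3-5 days at 20° C, scaled 0% (untreated growth) to 100% (no growth).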

Botrytis cinerea [1] = assay: in vitro-Test with fungal microorganisms, Method A (tables B1-B14); format: cell-based
Method in brief: as §1

Cercospora beticola [2] = assay: in vitro-Test with fungal microorganisms, Method A (tables C1-C10); format: cell-based
Method in brief: as §1

Cercospora beticola [3] = assay: in vitro-Test with fungal microorganisms, Method B (tables C11-C20); format: cell-based
Method in brief: (§2)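 Efficacy scale: 0% means growth equal to the untreated control, 100% means none detected. Compounds are dried from methanol with emulsifier before adding inoculated growth medium; incubation at 20° C., 85% relative humidity for 3 to 7 days precedes photometric inhibition readout.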

[4] = system: Colletotrichum lindemuthianum; assay: in vitro-Test with fungal microorganisms, Method A (tables D1-D8); format: cell-based; details: for inhibition of growth at 0.008 ppm / inhibition of growth at 0.04 ppm / inhibition of growth at 0.2 ppm / inhibition of growth at 1 ppm: Colletotrichum lindemuthianum, read-out: Efficacy %
Method in brief: as §1

Cordana musae [5] = assay: in vitro-Test with fungal microorganisms, Method A (tables E1-E8); format: cell-based; details: mixing partner alone
Method in brief: as §1

Cordana musae [6] = assay: in vitro-Test with fungal microorganisms, Method B (tables E9-E16); format: cell-based; details: single active
Method in brief: as §2

Diaporthe citri = assay: in vitro-Test with fungal microorganisms, Method A (tables F1-F11); format: cell-based
Method in brief: as §1

Fusarium culmorum [7] = assay: in vitro-Test with fungal microorganisms, Method A (tables G1-G4); format: cell-based; details: Fusarium culmorum, alone, read-out: Efficacy
Method: (§3) Example: In Vitro-Test with Fungal Microorganisms
Wells of 96-well microtiter plates are filled with 10 μl of a preparation of test compound or compound combination in methanol+emulsifier alkylaryl-polyglycol-ether. Thereafter, the solvent is evaporated in a hood. At the next step, 100 μl of liquid potato dextrose medium is given into each well, that has been amended with an appropriate concentration of spores or mycelium suspension of the test fungus.
With the aid of a photometer, the extinction in all wells is measured at the wavelength of 620 nm.
The microtiter plates are incubated at 20° C. and 85% relative humidity. The inhibition of growth is determined again photometrically 3-5 days after the application. Efficacy is calculated in relation to the untreated control, 0% efficacy means fungal growth as high as in untreated control while 100% efficacy means no fungal growth is measured.
(§4) The data in tables A1 to A12, B1 to B14, C1 to C10, D1 to D8, E1 to E8, F1 to F11, G1 to G4, H1 to H4 and I1 to I5 were collected according to Method A. The data in tables A13 to A22, B15 to B18, C11 to C20, E9 to E16, F12 to F15, G5 to G15, H5 to H8, I6 to I11 and J1 to J11 were collected according to Method B.

Fusarium culmorum [8] = assay: in vitro-Test with fungal microorganisms, Method B (tables G5-G15); format: cell-based
Method in brief: as §2

Parastagonospora nodorum = assay: in vitro-Test with fungal microorganisms, Method B (tables H5-H8); format: cell-based
Method: as §3
Wells of 96-well microtiter plates are filled with 30 μl of a preparation of test compound or compound combination in methanol+emulsifier alkylaryl-polyglycol-ether. Thereafter, the solvent is evaporated in a hood. At the next step, 200 μl of liquid growth medium is given, that has been amended with an appropriate concentration of spores or mycelium suspension of the test fungus.
With the aid of a photometer, the extinction in all wells is measured at the wavelength of 600 nm.
The microtiter plates are incubated for 3 to 7 days at 20° C. and 85% relative humidity. After the incubation inhibition of growth is determined photometrically. Efficacy is calculated in relation to the untreated control, 0% efficacy means fungal growth as high as in untreated control while 100% efficacy means no fungal growth is measured.
as §4

Colletotrichum coccodes = assay: in vitro-Test with fungal microorganisms, Method B (tables J1-J11); format: cell-based
Method in brief: as §2

Alternaria alternata = assay: in vitro-Test with fungal microorganisms, Method B (tables A13-A22); format: cell-based
Method in brief: as §2

Botrytis cinerea [9] = assay: in vitro-Test with fungal microorganisms, Method B (tables B15-B18); format: cell-based
Method in brief: as §2

[10] = Botrytis cinerea, read-out: Efficacy
[11] = Botrytis cinerea, alone, read-out: Efficacy %

**Q.** Which results are given for `CC(C)(C)C(O)(CCc1ccc(Cl)cc1)Cn1cncn1` (stereo not shown) [(1.021) tebuconazole, tebuconazole]?
**A.** inhibition of growth at 0.008 ppm (Alternaria alternate; Alternaria, 0.008 ppm, read-out: Efficacy %): 13%; inhibition of growth at 0.04 ppm (Alternaria alternate; Alternaria, 0.04 ppm, read-out: Efficacy %): 19%; inhibition of growth at 0.2 ppm (Alternaria alternate; Alternaria, 0.2 ppm, read-out: Efficacy %): 26%; inhibition of growth at 0.04 ppm (Botrytis cinerea [1]; [10]): 0%; inhibition of growth at 0.2 ppm (Botrytis cinerea [1]; [10]): 37%; inhibition of growth at 1 ppm (Botrytis cinerea [1]; Botrytis cinerea, 1.0 ppm, read-out: Efficacy): 94%; inhibition of growth at 0.008 ppm (Botrytis cinerea [1]; Botrytis cinerea, alone, 0.008 ppm, read-out: Efficacy %): 0%; inhibition of growth at 0.04 ppm (Botrytis cinerea [1]; [11]): 0%; inhibition of growth at 0.2 ppm (Botrytis cinerea [1]; [11]): 45%; inhibition of growth at 0.008 ppm (Cercospora beticola [2]; Cercospora beticola, 0.008 ppm alone, read-out: Efficacy %): 12%; inhibition of growth at 0.04 ppm (Cercospora beticola [2]; Cercospora beticola, 0.04 ppm alone, read-out: Efficacy %): 32%; inhibition of growth at 0.2 ppm (Cercospora beticola [2]; Cercospora beticola, 0.2 ppm alone, read-out: Efficacy %): 100%; inhibition of growth at 0.008 ppm (Cercospora beticola [3]; Cercospora beticola, single compound, 0.008 ppm, read-out: Efficacy %): 4%; inhibition of growth at 0.04 ppm (Cercospora beticola [3]; Cercospora beticola, single compound, 0.04 ppm, read-out: Efficacy %): 1%; inhibition of growth at 0.2 ppm (Cercospora beticola [3]; Cercospora beticola, single compound, 0.2 ppm, read-out: Efficacy %): 62%; inhibition of growth at 0.008 ppm ([4]; mixing partner alone, 0.008 ppm): 32%; inhibition of growth at 0.04 ppm ([4]; mixing partner alone, 0.04 ppm): 0%; inhibition of growth at 0.2 ppm ([4]; mixing partner alone, 0.2 ppm): 17%; inhibition of growth at 1 ppm ([4]; mixing partner alone, 1.0 ppm): 35%; inhibition of growth at 0.008 ppm ([4]; single active at 0.008 ppm): 0%; inhibition of growth at 0.04 ppm ([4]; single active at 0.04 ppm): 13%; inhibition of growth at 0.2 ppm ([4]; single active at 0.2 ppm): 0%; inhibition of growth at 1 ppm ([4]; single active at 1.0 ppm): 4%; inhibition of growth at 0.04 ppm (Cordana musae [5]; Neocordana musae, 0.04 ppm, read-out: Efficacy %): 0%; inhibition of growth at 0.2 ppm (Cordana musae [5]; Neocordana musae, 0.2 ppm, read-out: Efficacy %): 29%; Efficacy % (Cordana musae [5]; 1.0 ppm): 99%; inhibition of growth at 0.04 ppm (Cordana musae [6]; Neocordana musae, 0.04 ppm, read-out: Efficacy): 2%; inhibition of growth at 0.2 ppm (Cordana musae [6]; Neocordana musae, 0.2 ppm, read-out: Efficacy): 25%; inhibition of growth at 1 ppm (Cordana musae [6]; Neocordana musae, 1 ppm, read-out: Efficacy): 71%; inhibition of growth at 0.008 ppm (Diaporthe citri; Diaporthe citri, applied alone, 0.008 ppm, read-out: Efficacy): 28%; inhibition of growth at 0.2 ppm (Diaporthe citri; Diaporthe citri, applied alone, 0.2 ppm, read-out: Efficacy): 89%; inhibition of growth at 0.008 ppm (Fusarium culmorum [7]; 0.008 ppm): 8%; inhibition of growth at 0.04 ppm (Fusarium culmorum [7]; 0.04 ppm): 21%; inhibition of growth at 1 ppm (Fusarium culmorum [7]; 1.0 ppm): 98%; inhibition of growth at 1 ppm (Fusarium culmorum [8]; Fusarium culmorum, 1 ppm, alone, read-out: Efficacy): 79%; inhibition of growth at 0.008 ppm (Parastagonospora nodorum; Parastagonospora nodorum, 0.008 ppm, read-out: Efficacy): 0%; inhibition of growth at 0.04 ppm (Parastagonospora nodorum; Parastagonospora nodorum, 0.04 ppm, read-out: Efficacy): 0%; inhibition of growth at 0.2 ppm (Parastagonospora nodorum; Parastagonospora nodorum, 0.2 ppm, read-out: Efficacy): 60%; inhibition of growth at 1 ppm (Parastagonospora nodorum; Parastagonospora nodorum, 1 ppm, read-out: Efficacy): 100%; inhibition of growth at 0.04 ppm (Colletotrichum coccodes; Colletotrichum coccodes, 0.04 ppm, read-out: Efficacy %): 0%; inhibition of growth at 0.2 ppm (Colletotrichum coccodes; Colletotrichum coccodes, read-out: Efficacy %): 4%; inhibition of growth at 0.008 ppm (Colletotrichum coccodes; Colletotrichum coccodes, applied alone, 0.008 ppm, read-out: Efficacy %): 0%; inhibition of growth at 0.04 ppm (Colletotrichum coccodes; Colletotrichum coccodes, applied alone, 0.04 ppm, read-out: Efficacy %): 0%; inhibition of growth at 0.2 ppm (Colletotrichum coccodes; Colletotrichum coccodes, applied alone, read-out: Efficacy %): 0%; inhibition of growth at 0.008 ppm (Colletotrichum coccodes; Colletotrichum coccodes, single active compound at 0.008 ppm, read-out: Efficacy %): 0%; inhibition of growth at 0.04 ppm (Colletotrichum coccodes; Colletotrichum coccodes, single active compound at 0.04 ppm, read-out: Efficacy %): 7%; inhibition of growth at 1 ppm (Colletotrichum coccodes; Colletotrichum coccodes, single active compound at 1 ppm, read-out: Efficacy %): 87%

**Q.** Which results are given for `CCCOc1nc2ccc(I)cc2c(=O)n1CCC` [(13.004) proquinazid, proquinazid]?
**A.** Efficacy % (Alternaria alternate; 0.08 ppm): 19%; Efficacy % (Alternaria alternate; 0.4 ppm): 6%; Efficacy % (Alternaria alternate; 2.0 ppm): 0%; Efficacy % (Alternaria alternate; 10.0 ppm): 9%; Efficacy (Alternaria alternata; 0.08 ppm): 0%; Efficacy (Alternaria alternata; 0.4 ppm): 3%; Efficacy (Alternaria alternata; 2 ppm): 4%; Efficacy (Alternaria alternata; single compound, 0.08 ppm): 11%; Efficacy (Alternaria alternata; single compound, 0.4 ppm): 10%; Efficacy (Alternaria alternata; single compound, 2 ppm): 0%; Efficacy (Alternaria alternata; single compound, 10 ppm): 5%; Efficacy (Botrytis cinerea [1]; 0.08 ppm): 13%; Efficacy (Botrytis cinerea [1]; 0.4 ppm): 0%; Efficacy (Botrytis cinerea [1]; 2.0 ppm): 0%; Efficacy (Botrytis cinerea [1]; 10.0 ppm): 0%; Efficacy % (Botrytis cinerea [1]; alone, 0.4 ppm): 0%; Efficacy % (Botrytis cinerea [1]; alone, 10.0 ppm): 0%; Efficacy % (Botrytis cinerea [9]; 0.4 ppm alone): 0%; Efficacy % (Botrytis cinerea [9]; 2 ppm alone): 3% and 5%; Efficacy % (Cercospora beticola [2]; 0.08 ppm alone): 9%; Efficacy % (Cercospora beticola [2]; 0.4 ppm alone): 0%; Efficacy % (Cercospora beticola [2]; 2.0 ppm alone): 0%; Efficacy % (Cercospora beticola [2]; 10.0 ppm, alone): 19%; Efficacy % (Cercospora beticola [3]; 2 ppm): 0%; Efficacy % (Cercospora beticola [3]; 10 ppm): 0%; Efficacy % (Cercospora beticola [3]; single compound, 0.08 ppm): 0%; Efficacy % ([4]; single active at 0.08 ppm): 0%; Efficacy % ([4]; single active at 0.4 ppm): 0%; Efficacy % ([4]; single active at 2.0 ppm): 2%; Efficacy % ([4]; single active at 10.0 ppm): 25%; Efficacy % (Cordana musae [5]; 0.08 ppm): 0%; Efficacy % (Cordana musae [5]; 0.4 ppm): 0%; Efficacy % (Cordana musae [5]; 2.0 ppm): 1%; Efficacy % (Cordana musae [5]; 10.0 ppm): 26%; Efficacy (Cordana musae [6]; 0.08 ppm): 0% and 5%; Efficacy (Cordana musae [6]; 0.4 ppm): 0% and 3%; Efficacy (Cordana musae [6]; 10 ppm): 15% and 20%; Efficacy (Diaporthe citri; Table F10, 0.08 ppm alone): 0%; Efficacy (Diaporthe citri; Table F10, 0.4 ppm alone): 0%; Efficacy (Diaporthe citri; Table F10, 2.0 ppm alone): 12%; Efficacy (Diaporthe citri; Table F10, 10.0 ppm alone): 24%; Efficacy (Diaporthe citri; applied alone, 0.08 ppm): 16%; Efficacy (Diaporthe citri; applied alone, 0.4 ppm): 0%; Efficacy (Diaporthe citri; applied alone, 10.0 ppm): 21%; Efficacy (Fusarium culmorum [8]; 0.08 ppm alone): 18%; Efficacy (Fusarium culmorum [8]; 0.4 ppm alone): 0%; Efficacy (Fusarium culmorum [8]; single active compound, 0.08 ppm): 2%; Efficacy (Fusarium culmorum [8]; single active compound, 0.4 ppm): 11%; Efficacy (Fusarium culmorum [8]; single active compound, 2 ppm): 8% and 7%; Efficacy (Parastagonospora nodorum; 0.08 ppm): 32%; Efficacy % (Colletotrichum coccodes; single active compound at 0.4 ppm): 0%; Efficacy % (Colletotrichum coccodes; single active compound at 2 ppm): 0%; Efficacy % (Colletotrichum coccodes; single active compound at 10 ppm): 0%
